Laboratory results taken from patent US10499642B2, “Isoxazoline-substituted benzamides and analogues as insecticides” (SYNGENTA PARTICIPATIONS AG, priority 2015, dated 2019).

Legend:
Format in all cases: in vivo
Spodoptera littoralis = Spodoptera littoralis (Egyptian cotton leaf worm) cotton leaf disc test; conditions: foliar, 72 h, read-out: control (at least one of mortality, anti-feedant effect, and growth inhibition)
Summary of the method: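 Five first-instar larvae per disc were placed on dried, sprayed cotton leaf discs held on agar. Test solutions were aqueous, made from 10′000 ppm DMSO stocks. At day 3, control was counted when mortality, feeding deterrence or growth inhibition exceeded the untreated discs.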

Plutella xylostella = Plutella xylostella (diamond back moth) artificial diet test; conditions: 120 h, read-out: effect in at least one of the two categories (mortality or growth inhibition)
Summary of the method: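 At a 200 ppm rate, test solutions were applied to artificial diet and allowed to dry before second-instar larvae were added. Five days later, larval mortality and growth inhibition were rated against untreated samples.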

Thrips tabaci = Thrips tabaci (onion thrips) sunflower leaf disc test; conditions: foliar, 144 h
Procedure: Thrips tabaci (Onion Thrips):
Sunflower leaf discs were placed on agar in 24-well microtiter plates and sprayed with aqueous test solutions prepared from 10′000 ppm DMSO stock solutions. After drying the leaf discs were infested with a thrips population of mixed ages. The samples were assessed for mortality 6 days after infestation.

Myzus persicae = Myzus persicae (green peach aphid) sunflower leaf disc test; conditions: foliar, 144 h
Procedure: Myzus persicae (Green Peach Aphid):
Sunflower leaf discs were placed on agar in a 24-well microtiter plate and sprayed with test solutions at an application rate of 200 ppm. After drying, the leaf discs were infested with an aphid population of mixed ages. After an incubation period of 6 days after treatment, samples were checked for mortality. The following compounds gave at least 80% mortality of Myzus persicae: […]

Diabrotica Balteata = assay: Diabrotica balteata (corn root worm) maize sprout test; conditions: 96 h, read-out: effect in at least one of the two categories (mortality or growth inhibition)
Summary of the method: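 Scoring covered both mortality and growth inhibition relative to untreated controls, 4 days post-infestation. Test solutions at 200 ppm, diluted in water from 10′000 ppm DMSO stocks, were sprayed onto agar-held maize sprouts, which after drying received 6 to 10 L2 larvae each well.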

Tetranychus urticae = Tetranychus urticae (two-spotted spider mite) bean leaf disc test; conditions: foliar, 192 h
Procedure: Tetranychus urticae (Two-Spotted Spider Mite):
Bean leaf discs on agar in 24-well microtiter plates were sprayed with aqueous test solutions prepared from 10′000 ppm DMSO stock solutions. After drying the leaf discs were infested with a mite population of mixed ages. The samples were assessed for mortality on mixed population (mobile stages) 8 days after infestation.

Cc1cc(C2=NO[C@@](c3cc(Cl)c(Cl)c(Cl)c3)(C(F)(F)F)C2)ccc1C(=O)NC1CC(OCC(F)(F)F)=NO1 (stereo partly drawn) [Compound A129, 2-methyl-4-[(5S)-5-(3,4,5-trichlorophenyl)-5-(trifluoromethyl)-4H-isoxazol-3-yl]-N-[3-(2,2,2-trifluoroethoxy)-4,5-dihydroisoxazol-5-yl]benzamide]
≥ 80%: percent control (mortality, anti-feedant effect or growth inhibition) at 200 ppm (Spodoptera littoralis) | percent effect (mortality or growth inhibition) at 200 ppm (Plutella xylostella) | mortality at 200 ppm (Thrips tabaci) | mortality at 200 ppm (Myzus persicae) | percent effect (mortality or growth inhibition) at 200 ppm (Diabrotica Balteata) | mortality at 200 ppm (Tetranychus urticae)

COC1=NOC(NC(=O)c2ccc(C3=NO[C@@](c4cc(Cl)c(F)c(Cl)c4)(C(F)(F)F)C3)cc2Cl)C1 (stereo partly drawn) [Compound A045]
≥ 80%: percent control (mortality, anti-feedant effect or growth inhibition) at 200 ppm (Spodoptera littoralis) | percent effect (mortality or growth inhibition) at 200 ppm (Plutella xylostella) | mortality at 200 ppm (Thrips tabaci) | mortality at 200 ppm (Myzus persicae) | percent effect (mortality or growth inhibition) at 200 ppm (Diabrotica Balteata) | mortality at 200 ppm (Tetranychus urticae)

CC1=NOC(NC(=O)c2ccc(C3=NO[C@@](c4cc(Cl)c(F)c(Cl)c4)(C(F)(F)F)C3)cc2Cl)C1 (stereo partly drawn) [Compound A038, 2-chloro-4-[(5S)-5-(3,5-dichloro-4-fluoro-phenyl)-5-(trifluoromethyl)-4H-isoxazol-3-yl]-N-(3-methyl-4,5-dihydroisoxazol-5-yl)benzamide]
≥ 80%: percent control (mortality, anti-feedant effect or growth inhibition) at 200 ppm (Spodoptera littoralis) | percent effect (mortality or growth inhibition) at 200 ppm (Plutella xylostella) | mortality at 200 ppm (Thrips tabaci) | mortality at 200 ppm (Myzus persicae) | percent effect (mortality or growth inhibition) at 200 ppm (Diabrotica Balteata) | mortality at 200 ppm (Tetranychus urticae)

CCC1=NOC(N(C=O)C(=O)c2ccc(C3=NO[C@@](c4cc(Cl)c(F)c(Cl)c4)(C(F)(F)F)C3)cc2C)C1 (stereo partly drawn) [Compound A022, 4-[(5S)-5-(3,5-dichloro-4-fluoro-phenyl)-5-(trifluoromethyl)-4H-isoxazol-3-yl]-N-(3-ethyl-4,5-dihydroisoxazol-5-yl)-N-formyl-2-methyl-benzamide]
≥ 80%: percent control (mortality, anti-feedant effect or growth inhibition) at 200 ppm (Spodoptera littoralis) | percent effect (mortality or growth inhibition) at 200 ppm (Plutella xylostella) | mortality at 200 ppm (Thrips tabaci) | mortality at 200 ppm (Myzus persicae) | percent effect (mortality or growth inhibition) at 200 ppm (Diabrotica Balteata) | mortality at 200 ppm (Tetranychus urticae)

Cc1cc(C2=NO[C@@](c3cc(Cl)c(Cl)c(Cl)c3)(C(F)(F)F)C2)ccc1C(=O)NC1CC(OCC2CCC2)=NO1 (stereo partly drawn) [Compound A111, N-[3-(cyclobutylmethoxy)-4,5-dihydroisoxazol-5-yl]-2-methyl-4-[(5S)-5-(3,4,5-trichlorophenyl)-5-(trifluoromethyl)-4H-isoxazol-3-yl]benzamide]
≥ 80%: percent control (mortality, anti-feedant effect or growth inhibition) at 200 ppm (Spodoptera littoralis) | percent effect (mortality or growth inhibition) at 200 ppm (Plutella xylostella) | mortality at 200 ppm (Thrips tabaci) | mortality at 200 ppm (Myzus persicae) | percent effect (mortality or growth inhibition) at 200 ppm (Diabrotica Balteata) | mortality at 200 ppm (Tetranychus urticae)

CCOC1=NOC(NC(=O)c2ccc(C3=NO[C@@](c4cc(Cl)cc(C(F)(F)F)c4)(C(F)(F)F)C3)cc2Cl)C1 (stereo partly drawn) [Compound A066]
≥ 80%: percent control (mortality, anti-feedant effect or growth inhibition) at 200 ppm (Spodoptera littoralis) | percent effect (mortality or growth inhibition) at 200 ppm (Plutella xylostella) | mortality at 200 ppm (Thrips tabaci) | mortality at 200 ppm (Myzus persicae) | percent effect (mortality or growth inhibition) at 200 ppm (Diabrotica Balteata) | mortality at 200 ppm (Tetranychus urticae)

Cc1cc(C2=NO[C@@](c3cc(Cl)c(Cl)c(Cl)c3)(C(F)(F)F)C2)ccc1C(=O)NC1CC(OCc2ccccc2)=NO1 (stereo partly drawn) [Compound A110, N-(3-benzyloxy-4,5-dihydroisoxazol-5-yl)-2-methyl-4-[(5S)-5-(3,4,5-trichlorophenyl)-5-(trifluoromethyl)-4H-isoxazol-3-yl]benzamide]
≥ 80%: percent control (mortality, anti-feedant effect or growth inhibition) at 200 ppm (Spodoptera littoralis) | percent effect (mortality or growth inhibition) at 200 ppm (Plutella xylostella) | mortality at 200 ppm (Thrips tabaci) | mortality at 200 ppm (Myzus persicae) | percent effect (mortality or growth inhibition) at 200 ppm (Diabrotica Balteata) | mortality at 200 ppm (Tetranychus urticae)

Cc1cc(C2=NO[C@@](c3cc(Cl)c(F)c(Cl)c3)(C(F)(F)F)C2)ccc1C(=O)NC1CC(CO)=NO1 (stereo partly drawn) [Compound A087, 4-[(5S)-5-(3,5-dichloro-4-fluoro-phenyl)-5-(trifluoromethyl)-4H-isoxazol-3-yl]-N-[3-(hydroxymethyl)-4,5-dihydroisoxazol-5-yl]-2-methyl-benzamide]
≥ 80%: percent control (mortality, anti-feedant effect or growth inhibition) at 200 ppm (Spodoptera littoralis) | percent effect (mortality or growth inhibition) at 200 ppm (Plutella xylostella) | mortality at 200 ppm (Thrips tabaci) | mortality at 200 ppm (Myzus persicae) | percent effect (mortality or growth inhibition) at 200 ppm (Diabrotica Balteata) | mortality at 200 ppm (Tetranychus urticae)

CCSC1=NOC(NC(=O)c2ccc(C3=NO[C@@](c4cc(Cl)cc(C(F)(F)F)c4)(C(F)(F)F)C3)cc2C)C1 (stereo partly drawn) [Compound A051]
≥ 80%: percent control (mortality, anti-feedant effect or growth inhibition) at 200 ppm (Spodoptera littoralis) | percent effect (mortality or growth inhibition) at 200 ppm (Plutella xylostella) | mortality at 200 ppm (Thrips tabaci) | mortality at 200 ppm (Myzus persicae) | percent effect (mortality or growth inhibition) at 200 ppm (Diabrotica Balteata) | mortality at 200 ppm (Tetranychus urticae)

Cc1cc(C2=NO[C@@](c3cc(Cl)c(F)c(Cl)c3)(C(F)(F)F)C2)ccc1C(=O)NC1CC(N(C)C)=NO1 (stereo partly drawn) [Compound A105, 4-[(5S)-5-(3,5-dichloro-4-fluoro-phenyl)-5-(trifluoromethyl)-4H-isoxazol-3-yl]-N-[3-(dimethylamino)-4,5-dihydroisoxazol-5-yl]-2-methyl-benzamide]
≥ 80%: percent control (mortality, anti-feedant effect or growth inhibition) at 200 ppm (Spodoptera littoralis) | percent effect (mortality or growth inhibition) at 200 ppm (Plutella xylostella) | mortality at 200 ppm (Thrips tabaci) | mortality at 200 ppm (Myzus persicae) | percent effect (mortality or growth inhibition) at 200 ppm (Diabrotica Balteata) | mortality at 200 ppm (Tetranychus urticae)

Cc1cc(C2=NO[C@@](c3cc(Cl)c(F)c(Cl)c3)(C(F)(F)F)C2)ccc1C(=O)NC1CC(Oc2ccc(Cl)cc2)=NO1 (stereo partly drawn) [Compound A108, N-[3-(4-chlorophenoxy)-4,5-dihydroisoxazol-5-yl]-4-[(5S)-5-(3,5-dichloro-4-fluoro-phenyl)-5-(trifluoromethyl)-4H-isoxazol-3-yl]-2-methyl-benzamide]
≥ 80%: percent control (mortality, anti-feedant effect or growth inhibition) at 200 ppm (Spodoptera littoralis) | percent effect (mortality or growth inhibition) at 200 ppm (Plutella xylostella) | mortality at 200 ppm (Thrips tabaci) | mortality at 200 ppm (Myzus persicae) | percent effect (mortality or growth inhibition) at 200 ppm (Diabrotica Balteata) | mortality at 200 ppm (Tetranychus urticae)

Cc1cc(C2=NO[C@@](c3cc(Cl)c(Cl)c(Cl)c3)(C(F)(F)F)C2)ccc1C(=O)NC1CC(OCC(F)F)=NO1 (stereo partly drawn) [Compound A127, N-[3-(2,2-difluoroethoxy)-4,5-dihydroisoxazol-5-yl]-2-methyl-4-[(5S)-5-(3,4,5-trichlorophenyl)-5-(trifluoromethyl)-4H-isoxazol-3-yl]benzamide]
≥ 80%: percent control (mortality, anti-feedant effect or growth inhibition) at 200 ppm (Spodoptera littoralis) | percent effect (mortality or growth inhibition) at 200 ppm (Plutella xylostella) | mortality at 200 ppm (Thrips tabaci) | mortality at 200 ppm (Myzus persicae) | percent effect (mortality or growth inhibition) at 200 ppm (Diabrotica Balteata) | mortality at 200 ppm (Tetranychus urticae)

COC1=NOC(NC(=O)c2ccc(C3=NO[C@@](c4cc(Cl)cc(C(F)(F)F)c4)(C(F)(F)F)C3)cc2Cl)C1 (stereo partly drawn) [Compound A065]
≥ 80%: percent control (mortality, anti-feedant effect or growth inhibition) at 200 ppm (Spodoptera littoralis) | percent effect (mortality or growth inhibition) at 200 ppm (Plutella xylostella) | mortality at 200 ppm (Thrips tabaci) | mortality at 200 ppm (Myzus persicae) | percent effect (mortality or growth inhibition) at 200 ppm (Diabrotica Balteata) | mortality at 200 ppm (Tetranychus urticae)

CO/N=C/C1=NOC(NC(=O)c2ccc(C3=NO[C@@](c4cc(Cl)c(F)c(Cl)c4)(C(F)(F)F)C3)cc2C)C1 (stereo partly drawn) [Compound A119, 4-[(5S)-5-(3,5-dichloro-4-fluoro-phenyl)-5-(trifluoromethyl)-4H-isoxazol-3-yl]-N-[3-[(E)-methoxyiminomethyl]-4,5-dihydroisoxazol-5-yl]-2-methyl-benzamide]
≥ 80%: percent control (mortality, anti-feedant effect or growth inhibition) at 200 ppm (Spodoptera littoralis) | percent effect (mortality or growth inhibition) at 200 ppm (Plutella xylostella) | mortality at 200 ppm (Thrips tabaci) | mortality at 200 ppm (Myzus persicae) | percent effect (mortality or growth inhibition) at 200 ppm (Diabrotica Balteata) | mortality at 200 ppm (Tetranychus urticae)
